Measured values reported in ChEMBL document CHEMBL1201862, “PubChem BioAssay data set” (2004).
Active and inactive are the calls of the source.

Legend:
[1] = Luminescence Cell-Based Dose Confirmation HTS to Identify Inhibitors of Platelet Dense Granule Release. [Related pubchem assays: 1663 (Primary HTS), 1678 (Summary of Project)]; type: functional
[2] = target: Luciferin 4-monooxygenase (Photinus pyralis, UniProt P08659); test: firefly luciferase enzyme inhibitors, dose response, biochemical, luminescence (AID 1891)
Cytochrome P450 2C9 = Cytochrome P450 2C9 (Homo sapiens, UniProt P11712)
Cytochrome P450 2D6 = Cytochrome P450 2D6 (Homo sapiens, UniProt P10635);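 further: CYP2D6 member of a cytochrome P450 panel assay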
cells = type: functional
[3] = target: T1, Ubiquitin-conjugating enzyme E2 N (Homo sapiens, UniProt P61088); type: functional;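 further: Dose-response confirmation in a TR-FRET assay detecting UBC13-driven polyubiquitin chain formation, inhibition measured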
T1 sequence (P61088 whole entry): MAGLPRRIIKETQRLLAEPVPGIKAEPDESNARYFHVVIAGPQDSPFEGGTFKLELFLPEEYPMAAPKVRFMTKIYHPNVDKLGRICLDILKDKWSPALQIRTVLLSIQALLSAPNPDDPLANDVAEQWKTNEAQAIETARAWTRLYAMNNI

[4] = target: T2, Heat shock factor protein 1 (Mus musculus, UniProt P38532); test: HSF1 potentiators in luciferase reporter cells, confirmation, cell-based, NIH3T3, luminescence, dose retest (AID 435004); type: functional;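 further: stress induced by proteasome inhibitor MG132 added 30 min after compound; luciferase reporter driven by HSF1 response element in NIH3T3 cells; actives raise luminescence as potentiators of the MG132 stress response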
T2 sequence (P38532 whole entry): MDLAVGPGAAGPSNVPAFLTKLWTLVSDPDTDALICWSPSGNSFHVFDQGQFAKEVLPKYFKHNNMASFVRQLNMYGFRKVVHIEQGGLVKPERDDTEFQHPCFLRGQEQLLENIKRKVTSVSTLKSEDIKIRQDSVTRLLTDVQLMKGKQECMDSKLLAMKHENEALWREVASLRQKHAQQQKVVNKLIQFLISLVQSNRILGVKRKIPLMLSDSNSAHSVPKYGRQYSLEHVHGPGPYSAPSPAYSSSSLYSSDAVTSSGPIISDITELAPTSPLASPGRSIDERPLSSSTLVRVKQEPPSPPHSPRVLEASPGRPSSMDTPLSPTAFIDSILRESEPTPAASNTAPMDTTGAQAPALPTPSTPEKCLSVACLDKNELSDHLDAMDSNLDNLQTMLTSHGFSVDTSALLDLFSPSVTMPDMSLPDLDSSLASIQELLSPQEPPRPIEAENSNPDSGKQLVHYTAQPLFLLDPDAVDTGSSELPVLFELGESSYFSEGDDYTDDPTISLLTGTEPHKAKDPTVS

[5] = target: T3, Replicative DNA helicase DnaB (Mycobacterium tuberculosis, UniProt P9WMR3); test: DnaB intein splicing inhibitors, dose response, biochemical, cell-free fluorescence (AID 449749); type: functional
T3 sequence (P9WMR3 whole entry): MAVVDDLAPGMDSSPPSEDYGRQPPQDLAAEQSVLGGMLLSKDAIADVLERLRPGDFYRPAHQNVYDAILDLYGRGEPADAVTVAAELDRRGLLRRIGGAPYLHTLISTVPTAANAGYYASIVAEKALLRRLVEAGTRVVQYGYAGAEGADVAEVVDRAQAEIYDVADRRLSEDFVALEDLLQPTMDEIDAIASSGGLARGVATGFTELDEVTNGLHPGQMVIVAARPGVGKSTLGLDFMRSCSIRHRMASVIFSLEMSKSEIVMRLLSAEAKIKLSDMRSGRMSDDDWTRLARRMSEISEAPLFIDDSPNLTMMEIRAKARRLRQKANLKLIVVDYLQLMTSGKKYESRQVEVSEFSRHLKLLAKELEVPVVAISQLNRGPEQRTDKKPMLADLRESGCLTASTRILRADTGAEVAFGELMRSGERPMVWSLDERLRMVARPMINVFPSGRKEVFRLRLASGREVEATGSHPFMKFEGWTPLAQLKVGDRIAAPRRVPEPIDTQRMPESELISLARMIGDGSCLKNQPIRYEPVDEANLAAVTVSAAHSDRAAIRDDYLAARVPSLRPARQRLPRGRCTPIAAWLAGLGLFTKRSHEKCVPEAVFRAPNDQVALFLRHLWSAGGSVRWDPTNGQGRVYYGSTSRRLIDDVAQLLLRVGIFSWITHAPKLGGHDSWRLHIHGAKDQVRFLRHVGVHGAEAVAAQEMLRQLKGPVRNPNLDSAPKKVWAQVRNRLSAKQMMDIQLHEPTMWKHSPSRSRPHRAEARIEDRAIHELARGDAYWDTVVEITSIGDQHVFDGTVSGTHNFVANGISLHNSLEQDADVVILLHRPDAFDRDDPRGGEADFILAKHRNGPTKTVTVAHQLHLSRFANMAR

Protein RecA = target: T4, Protein RecA (Mycobacterium tuberculosis, UniProt P9WHJ3); test: Fluorescence Cell-Free Homogeneous Dose Retest to Identify Inhibitors of RecA-Intein Splicing Activity. [Related pubchem assays (depositor defined):AID2097, AID2223, AID489010, AID492950]; type: functional
T4 sequence (P9WHJ3 whole entry): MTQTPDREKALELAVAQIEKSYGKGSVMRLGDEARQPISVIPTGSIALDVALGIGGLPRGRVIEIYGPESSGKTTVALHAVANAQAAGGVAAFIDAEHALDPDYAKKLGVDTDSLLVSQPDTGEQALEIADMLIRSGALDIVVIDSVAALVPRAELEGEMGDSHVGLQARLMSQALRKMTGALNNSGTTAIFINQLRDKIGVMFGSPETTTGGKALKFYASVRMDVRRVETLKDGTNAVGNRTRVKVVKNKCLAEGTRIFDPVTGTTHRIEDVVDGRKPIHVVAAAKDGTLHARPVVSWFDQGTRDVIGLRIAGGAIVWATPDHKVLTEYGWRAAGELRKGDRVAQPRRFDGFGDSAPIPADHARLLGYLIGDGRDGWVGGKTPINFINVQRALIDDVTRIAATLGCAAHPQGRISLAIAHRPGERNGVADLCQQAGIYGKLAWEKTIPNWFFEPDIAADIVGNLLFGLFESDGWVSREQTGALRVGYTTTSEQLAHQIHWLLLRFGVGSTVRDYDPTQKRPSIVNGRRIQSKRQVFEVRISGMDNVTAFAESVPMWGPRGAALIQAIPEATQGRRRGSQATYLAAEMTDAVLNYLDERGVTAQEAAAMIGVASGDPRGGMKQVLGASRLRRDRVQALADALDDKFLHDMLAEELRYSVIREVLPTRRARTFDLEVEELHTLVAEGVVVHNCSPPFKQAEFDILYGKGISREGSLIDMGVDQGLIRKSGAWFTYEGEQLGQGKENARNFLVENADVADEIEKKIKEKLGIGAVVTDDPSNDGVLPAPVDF

Cytochrome P450 3A4 = Cytochrome P450 3A4 (Homo sapiens, UniProt P08684);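 further: CYP3A4 tested as one member of a cytochrome P450 panel screen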
Cytochrome P450 2C19 = Cytochrome P450 2C19 (Homo sapiens, UniProt P33261); test: Cytochrome panel assay with activity outcomes. Panel member name: p450-cyp2c19 Compounds with AC50 equal or less than 10 uM are considered active; type: functional; settings: read-out: AC50
Cytochrome P450 2C19, sequence (P33261 whole entry): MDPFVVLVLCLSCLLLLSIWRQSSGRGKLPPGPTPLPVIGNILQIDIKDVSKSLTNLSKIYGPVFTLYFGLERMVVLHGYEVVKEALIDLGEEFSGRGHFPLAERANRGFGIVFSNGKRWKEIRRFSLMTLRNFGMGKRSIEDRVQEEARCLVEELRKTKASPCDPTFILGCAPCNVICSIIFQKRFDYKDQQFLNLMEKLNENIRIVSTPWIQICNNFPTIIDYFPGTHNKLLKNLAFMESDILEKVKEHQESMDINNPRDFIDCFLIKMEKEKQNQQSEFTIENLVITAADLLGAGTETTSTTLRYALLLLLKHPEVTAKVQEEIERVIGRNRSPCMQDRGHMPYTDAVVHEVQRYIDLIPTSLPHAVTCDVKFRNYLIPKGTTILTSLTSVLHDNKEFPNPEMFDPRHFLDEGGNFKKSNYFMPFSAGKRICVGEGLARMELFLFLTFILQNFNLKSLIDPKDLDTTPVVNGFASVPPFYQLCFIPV

Cytochrome P450 2D6, sequence (P10635 whole entry): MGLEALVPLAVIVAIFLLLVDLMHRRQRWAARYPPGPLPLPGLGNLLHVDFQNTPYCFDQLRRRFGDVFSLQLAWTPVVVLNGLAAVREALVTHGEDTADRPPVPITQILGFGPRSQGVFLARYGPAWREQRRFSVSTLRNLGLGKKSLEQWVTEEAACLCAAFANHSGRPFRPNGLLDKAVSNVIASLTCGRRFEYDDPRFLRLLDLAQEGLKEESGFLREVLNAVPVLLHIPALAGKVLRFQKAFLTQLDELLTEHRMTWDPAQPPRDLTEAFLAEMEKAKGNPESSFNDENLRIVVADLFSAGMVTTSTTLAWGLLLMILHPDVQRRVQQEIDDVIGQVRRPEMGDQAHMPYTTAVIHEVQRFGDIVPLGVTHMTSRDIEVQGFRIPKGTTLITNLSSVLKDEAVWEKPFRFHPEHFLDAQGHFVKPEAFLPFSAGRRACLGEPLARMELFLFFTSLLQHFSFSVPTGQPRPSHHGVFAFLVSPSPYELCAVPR
Luciferin 4-monooxygenase, sequence (P08659 whole entry): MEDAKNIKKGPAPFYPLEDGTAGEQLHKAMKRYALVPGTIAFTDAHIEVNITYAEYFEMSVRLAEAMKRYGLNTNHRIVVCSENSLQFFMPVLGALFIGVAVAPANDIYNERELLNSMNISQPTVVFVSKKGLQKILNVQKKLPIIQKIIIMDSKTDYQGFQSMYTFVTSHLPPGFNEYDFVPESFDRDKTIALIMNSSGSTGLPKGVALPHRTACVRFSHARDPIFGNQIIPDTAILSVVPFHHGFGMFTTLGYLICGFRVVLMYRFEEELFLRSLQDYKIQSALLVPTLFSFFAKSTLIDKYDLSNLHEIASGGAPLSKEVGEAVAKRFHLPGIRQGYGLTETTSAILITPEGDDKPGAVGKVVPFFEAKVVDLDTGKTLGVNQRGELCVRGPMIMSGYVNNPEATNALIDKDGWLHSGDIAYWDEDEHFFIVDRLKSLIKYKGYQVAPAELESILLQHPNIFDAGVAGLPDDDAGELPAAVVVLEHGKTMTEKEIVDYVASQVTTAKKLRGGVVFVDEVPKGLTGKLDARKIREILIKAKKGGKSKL
Cytochrome P450 2C9, sequence (P11712 whole entry): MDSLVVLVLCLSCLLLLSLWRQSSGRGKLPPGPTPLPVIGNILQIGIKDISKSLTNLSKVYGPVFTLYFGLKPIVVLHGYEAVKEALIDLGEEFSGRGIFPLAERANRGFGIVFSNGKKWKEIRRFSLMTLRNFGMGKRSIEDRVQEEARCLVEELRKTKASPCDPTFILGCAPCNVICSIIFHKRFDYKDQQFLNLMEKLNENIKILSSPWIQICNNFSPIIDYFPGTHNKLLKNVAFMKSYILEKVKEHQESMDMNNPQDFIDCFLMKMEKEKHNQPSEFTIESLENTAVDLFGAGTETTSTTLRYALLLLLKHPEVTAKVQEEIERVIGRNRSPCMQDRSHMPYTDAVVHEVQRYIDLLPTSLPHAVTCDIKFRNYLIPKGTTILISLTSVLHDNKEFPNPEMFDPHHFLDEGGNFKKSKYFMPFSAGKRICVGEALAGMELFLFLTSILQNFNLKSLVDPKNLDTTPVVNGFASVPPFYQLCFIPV
Cytochrome P450 3A4, sequence (P08684 whole entry): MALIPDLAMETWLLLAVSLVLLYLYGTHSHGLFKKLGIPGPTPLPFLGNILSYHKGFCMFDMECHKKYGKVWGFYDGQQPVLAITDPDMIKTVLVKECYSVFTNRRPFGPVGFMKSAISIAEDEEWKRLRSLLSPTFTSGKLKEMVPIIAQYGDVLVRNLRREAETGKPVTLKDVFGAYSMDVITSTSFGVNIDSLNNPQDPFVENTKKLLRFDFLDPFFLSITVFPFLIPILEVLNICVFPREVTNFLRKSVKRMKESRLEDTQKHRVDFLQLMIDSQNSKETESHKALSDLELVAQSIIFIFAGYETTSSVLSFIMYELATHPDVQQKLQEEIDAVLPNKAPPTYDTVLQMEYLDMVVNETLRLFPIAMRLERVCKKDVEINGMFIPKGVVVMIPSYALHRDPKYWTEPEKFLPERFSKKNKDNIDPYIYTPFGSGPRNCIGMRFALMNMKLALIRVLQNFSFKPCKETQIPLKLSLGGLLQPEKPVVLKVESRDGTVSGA

COc1ccc(CNC(=O)N[C@@H](CC(C)C)C(=O)O)cc1OC
EC50 [1]: > 112 µM (not active) | EC50 [2]: > 112 µM (not active)

CC(=O)Nc1ccc(OCC(O)Cn2cnc3ccccc32)cc1 (stereo not given)
AC50 (Cytochrome P450 2C9): 0.0631 µM (inconclusive) | AC50 (Cytochrome P450 2D6): 0.00562 µM (inconclusive)

COc1[nH]nc(C(=O)Nc2cc(F)ccc2C)c1[N+](=O)[O-]
IC50 (cells): > 50 µM (active)

Cc1cc(C(=O)N/N=C/c2ccc(OC(=O)c3ccccc3Br)cc2)[nH]n1
IC50 (cells): 41.6 µM (active)

COc1cc(C#Cc2c(-c3cncn3C)n(C)c3ccc(Br)cc23)cc(OC)c1
IC50 [3]: > 20 µM (inactive)

CC1CCN(c2ccc(C=O)o2)CC1
EC50 [4]: > 260 µM (inactive)

Cn1c(SCc2cccc(C(F)(F)F)c2)nnc1-c1ccco1
EC50 [4]: > 260 µM (inactive)

CN(Cc1cc(C(C)(C)C)cc(Br)c1O)Cc1cc(C(C)(C)C)cc(Br)c1O
AC50 (Cytochrome P450 2C9): 3.98 µM (inconclusive) | AC50 (Cytochrome P450 2D6): 2.51 µM (inconclusive)

O=C(c1cccnc1S)N1CCN(S(=O)(=O)c2ccc(Br)cc2Cl)CC1
EC50 [4]: > 260 µM (inactive)

COC(=O)c1ccccc1NC(=S)NC(=O)c1ccc(C)cc1
AC50 [5]: 0.452 µM (active) | EC50 (Protein RecA): 0.239 µM (active)

CCCC[C@@H]1CN=C(N)N1CCc1cc(C(F)(F)F)cc(C(F)(F)F)c1
IC50 [3]: > 20 µM (inactive)

CCOC(=O)c1c(NC(=O)COC(=O)c2ncc(Cl)c(Cl)c2Cl)sc(C(=O)N(C)C)c1C
AC50 [5]: 14.1 µM (active) | EC50 (Protein RecA): 45.5 µM (active)

CCN(CC)S(=O)(=O)c1ccc(N2CCN(S(=O)(=O)c3ccccc3C#N)CC2)nc1
AC50 [5]: > 380 µM (inactive) | EC50 (Protein RecA): > 380 µM (inactive)

CCCCOc1ccc(-c2nnn(C(C)C(=O)OCC)n2)cc1 (stereo not given)
IC50 (cells): 2.83 µM (active)

Cc1ccnc(N2C(=O)C3C4CC(C(Br)C4Br)C3C2=O)c1 (stereo not given)
AC50 (Cytochrome P450 3A4): 25.1 µM (inconclusive) | AC50 (Cytochrome P450 2C9): 17.8 µM (inconclusive)

CC(=O)NC(c1cc(Cl)c2ccccc2c1O)C(C)C (stereo not given)
IC50 [3]: > 20 µM (inactive)

O=C(CC1Oc2ccccc2NC1=O)NC1CCCC1 (stereo not given)
EC50 [1]: > 112 µM (not active) | EC50 [2]: > 112 µM (not active)

O=C(OCc1ccc([N+](=O)[O-])cc1)c1ccc2ccccc2n1
IC50 (cells): 18 µM (active)

COc1ccc(N2CCN(c3nc4c(c(=O)n(C)c(=O)n4C)n3Cc3ccccc3)CC2)cc1
EC50 [1]: > 112 µM (not active) | EC50 [2]: 18 µM (active)

C[C@@H]1CC[C@H]2C(=O)O[C@H](CN=[N+]=[N-])CN2[C@@H]1c1ccc(Br)cc1
AC50 (Cytochrome P450 2C9): 3.16 µM (inconclusive) | AC50 (Cytochrome P450 2D6): 7.94 µM (inconclusive)

Cc1c(NC(=O)CSC(=S)N2CCCC2)c(=O)n(-c2ccccc2)n1C
EC50 [1]: 25.5 µM (active) | EC50 [2]: > 112 µM (not active)

COc1ccc(-c2cc(C(F)(F)F)nc(SCC(=O)N3CCOCC3)n2)cc1OC
EC50 [1]: 15.8 µM (active) | EC50 [2]: > 112 µM (not active)

Cc1ccc(S(=O)(=O)N2CCC(C(=O)NCc3cccnc3)CC2)cc1
AC50 (Cytochrome P450 2C19): 17.8 µM (inconclusive) | AC50 (Cytochrome P450 2C9): 6.31 µM (inconclusive) | AC50 (Cytochrome P450 2D6): 12.6 µM (inconclusive)

O=C(N/N=C/c1ccccn1)c1ccc(NC(=O)c2ccc(F)cc2)cc1
EC50 [1]: > 112 µM (not active) | EC50 [2]: > 112 µM (not active)

C=CCn1c(S)nnc1C(C)NC(=O)c1ccccc1 (stereo not given)
AC50 (Cytochrome P450 2C9): 17.8 µM (inconclusive)

CCOCCCN=C(S)Nc1ccc2nc(N3CCOCC3)cc(C)c2c1
EC50 [4]: > 260 µM (inactive)

COC(=O)/C=C/CSC1=N/C(=C/c2ccc(-n3cncn3)cc2)C(=O)N1
AC50 (Cytochrome P450 2C9): 11.2 µM (inconclusive)

COc1ccc(Oc2ncc3nc(C)c(=O)n(-c4ccccc4)c3n2)cc1
AC50 (Cytochrome P450 2C19): 39.8 µM (inconclusive) | AC50 (Cytochrome P450 2C9): 10 µM (inconclusive) | AC50 (Cytochrome P450 2D6): 39.8 µM (inconclusive)

CCOC(=O)c1ccc(NC(=O)CCc2ccc(C)o2)cc1
EC50 [1]: > 112 µM (not active) | EC50 [2]: > 112 µM (not active)

COc1cccc(C2CC(C(F)(F)F)n3ncc(C(=O)O)c3N2)c1 (stereo not given)
EC50 [1]: > 112 µM (not active) | EC50 [2]: > 112 µM (not active)

C/C=C1\COC(C(=O)NCCN2CCCC2)(C(F)(F)F)C=C1C=C1CCCCC1 (stereo not given)
IC50 [3]: > 20 µM (inactive)

Cc1cccc(CC(C)NC(=O)c2oc3c(F)cccc3c2C)n1 (stereo not given)
EC50 [4]: > 260 µM (inactive)

COc1cc(O)ccc1C=O
EC50 [1]: > 112 µM (not active) | EC50 [2]: > 112 µM (not active)

COc1cc(CNCC(O)c2ccccc2)ccc1OCc1ccc(Cl)nc1 (stereo not given)
EC50 [4]: > 260 µM (inactive)

CCCc1cc(=O)oc2c(C)c(OCC(=O)Nc3ccc(CN4CCOCC4)cc3)ccc12
EC50 [1]: > 112 µM (not active) | EC50 [2]: > 112 µM (not active)

COc1ccc(NC(=O)C2CCCN(c3nn4c(=O)cc(C)nc4s3)C2)c(OC)c1 (stereo not given)
EC50 [1]: > 112 µM (not active) | EC50 [2]: > 112 µM (not active)

C#CCOCCOCCOCCNc1nc(N2CCN(C(=O)[C@H]([C@@H](C)CC)n3cc([C@@H](N)CC(C)C)nn3)CC2)nc(N2CCN(C(=O)[C@H](Cc3ccc(O)cc3)n3cc([C@@H](N)C(C)CC)nn3)CC2)n1 (stereo not given in full)
IC50 [3]: > 20 µM (inactive)

COc1ccc(C/N=C(\C#N)C2=C(O)c3ccccc3C2=O)cc1
IC50 (cells): 45.7 µM (active)

COC(=O)C1=C(C)N(Cc2ccccc2)C(NCc2cc(OC)c(OC)c(OC)c2)=N[C@H]1CCc1ccccc1
IC50 [3]: > 20 µM (inactive)

Cc1cc(C)cc(NC(=O)CN2C(=O)NC(C)(c3ccccc3)C2=O)c1 (stereo not given)
EC50 [4]: > 260 µM (inactive)

COc1ccccc1NC(=O)CSc1nc2c(sc3ccccc32)c(=O)n1CCN(C)C
AC50 [5]: 58.7 µM (active) | EC50 (Protein RecA): 12.9 µM (active)

CCN1C(=O)c2cccc3c(S(=O)(=O)Nc4ncccc4C)ccc1c23
EC50 [4]: > 260 µM (inactive)
